# Source: US20190216761A1, “COMPOSITIONS COMPRISING 15-HEPE AND METHODS OF USING THE SAME” (Afimmune Limited, priority 2015, published 2019)
# Residue numbers refer to the chain shown, from its start. Marks after values point to notes of the source that are not given here.
# Key:
# Assay type in all cases: cell-based
# hPPARα = target: T1, hPPARα (Homo sapiens, UniProt Q07869); assay: PPAR agonist reporter assay (Gal4 hybrid receptor, luciferase)
# T1 construct: expressed in transfected cells
# T1 sequence (Q07869 239-466 limits assumed): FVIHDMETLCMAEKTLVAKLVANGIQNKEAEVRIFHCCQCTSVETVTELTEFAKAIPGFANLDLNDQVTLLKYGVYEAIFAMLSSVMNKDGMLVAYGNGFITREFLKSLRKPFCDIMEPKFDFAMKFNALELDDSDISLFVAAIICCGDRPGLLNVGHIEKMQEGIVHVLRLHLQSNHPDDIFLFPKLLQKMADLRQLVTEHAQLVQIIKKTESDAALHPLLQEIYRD
# Description: (§1) This study utilized proprietary reporter cells expressing a hybrid receptor comprising the N-terminal Gal4 DNA binding domain fused to the ligand binding domain of the specific human nuclear receptor (hPPARα, hPPARδ, and hPPARγ) and rat nuclear receptor (rPPARα, rPPARδ, and rPPARγ). The reporter vectors used in this Example comprise the firefly luciferase gene functionally linked to the Gal4 upstream activation sequence.
# (§2) Nuclear Receptor assay was performed by dispensing 100 μL of a suspension of Reporter Cells in Cell Recovery Medium (CRM) containing 10% charcoal stripped FBS into each well of a white 96-well plate. Test compounds were diluted using compound screening medium (CSM) containing 10% charcoal stripped FBS to generate “2×-concentration” treatment media. Immediately after this dilution step, 100 μL of each diluted 2×-concentration treatment medium was dispensed (in triplicate) into the Reporter Cell-containing assay wells.
# (§3) After incubation at 37° C. for 24 hours, the treatment media was discarded. 100 μL of Luciferase Detection Reagent substrate was added to each well and RLUs were quantified from each well to determine nuclear receptor activities.
# hPPARγ = target: T2, hPPARγ (Homo sapiens, UniProt P37231); assay: as above
# T2 construct: expressed in transfected cells
# T2 sequence (P37231 238-503 limits assumed): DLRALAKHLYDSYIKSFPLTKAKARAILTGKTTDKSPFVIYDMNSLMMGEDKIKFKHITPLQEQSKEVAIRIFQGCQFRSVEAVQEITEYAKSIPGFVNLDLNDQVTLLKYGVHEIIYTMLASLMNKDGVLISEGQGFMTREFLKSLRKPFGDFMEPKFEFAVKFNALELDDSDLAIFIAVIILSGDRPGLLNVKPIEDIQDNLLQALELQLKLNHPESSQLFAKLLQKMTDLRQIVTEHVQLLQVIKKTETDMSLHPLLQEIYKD
# Description: as §1, §2, §3
# hPPARδ = target: T3, hPPARδ (Homo sapiens, UniProt Q03181); assay: as above
# T3 construct: expressed in transfected cells
# T3 sequence (Q03181 211-439 limits assumed): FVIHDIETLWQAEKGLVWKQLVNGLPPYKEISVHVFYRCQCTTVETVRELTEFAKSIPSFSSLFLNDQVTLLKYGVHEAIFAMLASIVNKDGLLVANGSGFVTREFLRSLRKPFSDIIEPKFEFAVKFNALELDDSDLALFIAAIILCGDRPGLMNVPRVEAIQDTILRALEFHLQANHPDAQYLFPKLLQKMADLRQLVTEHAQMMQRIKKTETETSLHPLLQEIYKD
# Description: as §1, §2, §3
# rPPARα = target: T4, rPPARα (Rattus norvegicus, UniProt P37230); assay: as above
# T4 construct: expressed in transfected cells
# T4 sequence (P37230 239-466 limits assumed): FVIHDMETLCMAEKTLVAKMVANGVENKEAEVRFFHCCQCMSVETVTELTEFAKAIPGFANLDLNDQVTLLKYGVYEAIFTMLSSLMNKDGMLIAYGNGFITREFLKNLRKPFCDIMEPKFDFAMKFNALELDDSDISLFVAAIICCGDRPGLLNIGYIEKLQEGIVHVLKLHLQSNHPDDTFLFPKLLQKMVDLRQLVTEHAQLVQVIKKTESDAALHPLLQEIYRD
# Description: as §1, §2, §3
# rPPARγ = target: T5, rPPARγ (Rattus norvegicus, UniProt O88275); assay: as above
# T5 construct: expressed in transfected cells
# T5 sequence (O88275 238-503 limits assumed): T2 sequence (P37231 238-503 limits assumed) with S93N, V98I, L226V, Q245H
# Description: as §1, §2, §3
# hPPARδ Reporter Cells = assay: Live cell multiplex assay
# Description: as §1
# Nuclear Receptor assay was performed by suspending Reporter Cells in CRM containing 10% charcoal stripped FBS. 2×-EC80 concentrations of the appropriate reference agonist were then added to the Reporter Cell suspension, and 100 μL of the mixture dispensed into wells of a white 96-well plate. Test compounds were diluted using compound screening medium (CSM) containing 10% charcoal stripped FBS to generate “2×-concentration” treatment media. Immediately after this dilution step, 100 μL of each diluted 2×-concentration treatment medium was dispensed (in triplicate) into the Reporter Cell-containing assay wells.
# After incubation at 37° C. for 24 hours, the treatment media was discarded. Each well was rinsed once with LCM Buffer; LCM substrate was then added. After incubation for 30 minutes at 37° C., fluorescence was measured to determine the relative number of live cells per assay well. LCM substrate was then discarded and 100 μL of Luciferase Detection Reagent substrate was added to each well. RLUs were quantified from each well to determine nuclear receptor activities.
# [1] = at low to higher doses in the dose response curve
# [2] = at medium to higher doses in the dose response curve
structure (smiles),measurement,setting,value
"CC/C=C\C[C@H](O)/C=C/C=C\C/C=C\C/C=C\CCCC(=O)OCC [15-HEPE-EE, 15-HEPE ethyl ester]",Fold-Activation (vs. 0.10% DMSO) hPPAR-α,hPPARα; 137 nM,0.90 fold
same,Fold-Activation (vs. 0.10% DMSO) hPPAR-α,hPPARα; 412 nM,1.1 fold
same,Fold-Activation (vs. 0.10% DMSO) hPPAR-α,"hPPARα; 1,235 nM",1.1 fold
same,Fold-Activation (vs. 0.10% DMSO) hPPAR-α,"hPPARα; 3,704 nM",2.1* fold
same,Fold-Activation (vs. 0.10% DMSO) hPPAR-α,"hPPARα; 11,111 nM",4.2* fold
same,Fold-Activation (vs. 0.10% DMSO) hPPAR-α,"hPPARα; 33,333 nM",6.8* fold
same,Fold-Activation (vs. 0.10% DMSO) hPPAR-α,"hPPARα; 100,000 nM",5.0* fold
same,Fold-Activation (vs. 0.10% DMSO) hPPAR-α,"hPPARα; 300,000 nM",0.98 fold
same,agonism activity against human PPARα (in words),hPPARα; [1],moderate agonism activity
same,Fold-Activation (vs. 0.10% DMSO) hPPAR-γ,hPPARγ; 137 nM,1.0 fold
same,Fold-Activation (vs. 0.10% DMSO) hPPAR-γ,hPPARγ; 412 nM,1.1 fold
same,Fold-Activation (vs. 0.10% DMSO) hPPAR-γ,"hPPARγ; 1,235 nM",1.3 fold
same,Fold-Activation (vs. 0.10% DMSO) hPPAR-γ,"hPPARγ; 3,704 nM",1.5 fold
same,Fold-Activation (vs. 0.10% DMSO) hPPAR-γ,"hPPARγ; 11,111 nM",2.1* fold
same,Fold-Activation (vs. 0.10% DMSO) hPPAR-γ,"hPPARγ; 33,333 nM",3.6* fold
same,Fold-Activation (vs. 0.10% DMSO) hPPAR-γ,"hPPARγ; 100,000 nM",6.1* fold
same,Fold-Activation (vs. 0.10% DMSO) hPPAR-γ,"hPPARγ; 300,000 nM",0.027 fold
same,agonism activity against human PPARγ (in words),hPPARγ; [1],moderate agonism activity
same,Fold-Activation (vs. 0.10% DMSO) hPPAR-δ,hPPARδ; 137 nM,1.4 fold
same,Fold-Activation (vs. 0.10% DMSO) hPPAR-δ,hPPARδ; 412 nM,2.1* fold
same,Fold-Activation (vs. 0.10% DMSO) hPPAR-δ,"hPPARδ; 1,235 nM",2.1* fold
same,Fold-Activation (vs. 0.10% DMSO) hPPAR-δ,"hPPARδ; 3,704 nM",2.4* fold
same,Fold-Activation (vs. 0.10% DMSO) hPPAR-δ,"hPPARδ; 11,111 nM",5.6* fold
same,Fold-Activation (vs. 0.10% DMSO) hPPAR-δ,"hPPARδ; 33,333 nM",4.1* fold
same,Fold-Activation (vs. 0.10% DMSO) hPPAR-δ,"hPPARδ; 100,000 nM",8.0* fold
same,Fold-Activation (vs. 0.10% DMSO) hPPAR-δ,"hPPARδ; 300,000 nM",0.073 fold
same,agonism activity against human PPARδ (in words),hPPARδ; [1],moderate agonism activity
same,Fold-Activation (vs. 0.10% DMSO) rPPAR-α,rPPARα; 137 nM,1.1 fold
same,Fold-Activation (vs. 0.10% DMSO) rPPAR-α,rPPARα; 412 nM,1.2 fold
same,Fold-Activation (vs. 0.10% DMSO) rPPAR-α,"rPPARα; 1,235 nM",1.2 fold
same,Fold-Activation (vs. 0.10% DMSO) rPPAR-α,"rPPARα; 3,704 nM",1.4 fold
same,Fold-Activation (vs. 0.10% DMSO) rPPAR-α,"rPPARα; 11,111 nM",1.7 fold
same,Fold-Activation (vs. 0.10% DMSO) rPPAR-α,"rPPARα; 33,333 nM",2.6* fold
same,Fold-Activation (vs. 0.10% DMSO) rPPAR-α,"rPPARα; 100,000 nM",1.4 fold
same,Fold-Activation (vs. 0.10% DMSO) rPPAR-α,"rPPARα; 300,000 nM",0.068 fold
same,agonism activity against rat PPARα (in words),rPPARα; [2],mild to moderate agonism activity
same,Fold-Activation (vs. 0.10% DMSO) rPPAR-γ,rPPARγ; 137 nM,1.2 fold
same,Fold-Activation (vs. 0.10% DMSO) rPPAR-γ,rPPARγ; 412 nM,1.2 fold
same,Fold-Activation (vs. 0.10% DMSO) rPPAR-γ,"rPPARγ; 1,235 nM",1.4 fold
same,Fold-Activation (vs. 0.10% DMSO) rPPAR-γ,"rPPARγ; 3,704 nM",1.4 fold
same,Fold-Activation (vs. 0.10% DMSO) rPPAR-γ,"rPPARγ; 11,111 nM",1.8 fold
same,Fold-Activation (vs. 0.10% DMSO) rPPAR-γ,"rPPARγ; 33,333 nM",3.5* fold
same,Fold-Activation (vs. 0.10% DMSO) rPPAR-γ,"rPPARγ; 100,000 nM",10* fold
same,Fold-Activation (vs. 0.10% DMSO) rPPAR-γ,"rPPARγ; 300,000 nM",14* fold
same,agonism activity against rat PPARγ (in words),rPPARγ; [2],mild to moderate agonism activity
same,"% Live cells vs. 0.10% DMSO, hPPAR-δ",hPPARδ Reporter Cells; 137 nM,95%
same,"% Live cells vs. 0.10% DMSO, hPPAR-δ",hPPARδ Reporter Cells; 412 nM,98%
same,"% Live cells vs. 0.10% DMSO, hPPAR-δ","hPPARδ Reporter Cells; 1,235 nM",99%
same,"% Live cells vs. 0.10% DMSO, hPPAR-δ","hPPARδ Reporter Cells; 3,704 nM",100%
same,"% Live cells vs. 0.10% DMSO, hPPAR-δ","hPPARδ Reporter Cells; 11,111 nM",101%
same,"% Live cells vs. 0.10% DMSO, hPPAR-δ","hPPARδ Reporter Cells; 33,333 nM",101%
same,"% Live cells vs. 0.10% DMSO, hPPAR-δ","hPPARδ Reporter Cells; 100,000 nM",101%
same,"% Live cells vs. 0.10% DMSO, hPPAR-δ","hPPARδ Reporter Cells; 300,000 nM",7.7%
